“Also recorded” adds a separate entry of the source.
Columns and labels:
[1] = system: Alpha adrenergic; experiment: Alpha adrenergic activity of prior-application compound (statement); details: background statement
[2] = biological target: T1, alpha2C receptor (Homo sapiens, UniProt P18825); experiment: RSAT assay, alpha2C receptor; format: cell-based; details: NIH-3T3 cells, relative to brimonidine, NA = not active at concentrations less than 10 micromolar
T1 construct: expressed in transfected cells; host or cells: NIH-3T3
T1 sequence (P18825 1-462): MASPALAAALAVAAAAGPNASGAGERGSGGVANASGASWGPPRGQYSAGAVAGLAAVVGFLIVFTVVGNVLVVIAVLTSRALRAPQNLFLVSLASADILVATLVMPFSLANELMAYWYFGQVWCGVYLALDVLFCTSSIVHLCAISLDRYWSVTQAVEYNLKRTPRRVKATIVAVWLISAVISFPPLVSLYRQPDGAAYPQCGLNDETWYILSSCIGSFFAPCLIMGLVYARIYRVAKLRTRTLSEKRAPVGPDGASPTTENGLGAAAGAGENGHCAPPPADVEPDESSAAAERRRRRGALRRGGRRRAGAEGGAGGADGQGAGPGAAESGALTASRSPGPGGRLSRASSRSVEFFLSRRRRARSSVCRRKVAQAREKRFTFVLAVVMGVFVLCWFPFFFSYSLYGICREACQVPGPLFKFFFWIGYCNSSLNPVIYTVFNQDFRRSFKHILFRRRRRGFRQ
Procedure: (§1) The RSAT assay measures a receptor-mediated loss of contact inhibition that results in selective proliferation of receptor-containing cells in a mixed population of confluent cells. The increase in cell number is assessed with an appropriate transfected marker gene such as […], the activity of which can be easily measured in a 96-well format. Receptors that activate the G protein, Gq, elicit this response. Alpha2 receptors, which normally couple to Gi, activate the RSAT response when coexpressed with a hybrid Gq protein that has a Gi receptor recognition domain, called Gq/i5.
(§2) NIH-3T3 cells are plated at a density of 2×10^6 cells in 15 cm dishes and maintained in Dulbecco's modified Eagle's medium supplemented with 10% calf serum. One day later, cells are cotransfected by calcium phosphate precipitation with mammalian expression plasmids encoding p-SV-β-galactosidase (5-10 μg), receptor (1-2 μg) and G protein (1-2 μg). 40 μg salmon sperm DNA may also be included in the transfection mixture. Fresh media is added on the following day and 1-2 days later, cells are harvested and frozen in 50 assay aliquots. Cells are thawed and 100 μl added to 100 μl aliquots of various concentrations of drugs in triplicate in 96-well dishes. Incubations continue 72-96 hr at 37° C. After washing with phosphate-buffered saline, β-galactosidase enzyme activity is determined by adding […] of the chromogenic substrate (consisting of 3.5 mM o-nitrophenyl-β-D-galactopyranoside and 0.5% nonidet P-40 in phosphate buffered saline), incubating overnight at 30° C. and measuring optical density at 420 nm. The absorbance is a measure of enzyme activity, which depends on cell number and reflects a receptor-mediated cell proliferation. The efficacy or intrinsic activity is calculated as a ratio of the maximal effect of the drug to the maximal effect of a standard full agonist for each receptor subtype. Brimonidine, also called UK14304, the chemical structure of which is shown below, is used as the standard agonist for the alpha2A, alpha2B and alpha2C receptors. […]

[3] = biological target: T2, alpha2B receptor (Homo sapiens, UniProt P18089); experiment: RSAT assay, alpha2B receptor; format: cell-based; details: NIH-3T3 cells, relative to brimonidine, NA = not active at concentrations less than 10 micromolar
T2 construct: expressed in transfected cells; host or cells: NIH-3T3
T2 sequence (P18089 1-450): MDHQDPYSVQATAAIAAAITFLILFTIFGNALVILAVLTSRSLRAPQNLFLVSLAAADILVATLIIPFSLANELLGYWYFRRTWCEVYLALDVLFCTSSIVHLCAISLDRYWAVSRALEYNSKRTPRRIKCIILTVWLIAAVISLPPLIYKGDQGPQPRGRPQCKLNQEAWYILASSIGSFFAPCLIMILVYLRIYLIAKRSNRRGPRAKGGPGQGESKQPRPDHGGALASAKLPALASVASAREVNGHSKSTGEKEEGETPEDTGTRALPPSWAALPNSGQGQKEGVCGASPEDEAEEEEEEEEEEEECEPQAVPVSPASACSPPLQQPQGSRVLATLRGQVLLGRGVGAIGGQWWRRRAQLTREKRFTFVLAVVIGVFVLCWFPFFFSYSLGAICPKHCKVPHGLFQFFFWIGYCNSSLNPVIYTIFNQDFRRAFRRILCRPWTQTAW
Procedure: as §1, §2

[4] = biological target: T3, alpha2A receptor (Homo sapiens, UniProt P08913); experiment: RSAT assay, alpha2A receptor; format: cell-based; details: NIH-3T3 cells, relative to brimonidine, NA = not active at concentrations less than 10 micromolar
T3 construct: expressed in transfected cells; host or cells: NIH-3T3
T3 sequence (P08913 1-465): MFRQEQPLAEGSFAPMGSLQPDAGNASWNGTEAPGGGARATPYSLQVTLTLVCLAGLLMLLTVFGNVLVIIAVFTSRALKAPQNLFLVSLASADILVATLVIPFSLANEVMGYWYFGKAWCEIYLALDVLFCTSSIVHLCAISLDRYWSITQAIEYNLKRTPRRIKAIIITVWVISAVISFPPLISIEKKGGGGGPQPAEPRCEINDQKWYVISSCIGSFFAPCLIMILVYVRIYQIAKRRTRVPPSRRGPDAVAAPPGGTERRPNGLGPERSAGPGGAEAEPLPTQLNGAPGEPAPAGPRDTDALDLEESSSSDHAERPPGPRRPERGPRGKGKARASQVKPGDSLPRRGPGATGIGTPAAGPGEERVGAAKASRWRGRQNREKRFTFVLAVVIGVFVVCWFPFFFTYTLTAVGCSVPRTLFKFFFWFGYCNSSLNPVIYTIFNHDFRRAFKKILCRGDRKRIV
Procedure: as §1, §2

[5] = system: α1; experiment: RSAT assay, α1 receptor; format: cell-based; details: NIH-3T3 cells, ratio of maximal effect to that of standard full agonist, NA = not active at concentrations less than 10 micromolar
Procedure: as §1
NIH-3T3 cells are plated at a density of 2×10^6 cells in 15 cm dishes and maintained in Dulbecco's modified Eagle's medium supplemented with 10% calf serum. […] After washing with phosphate-buffered saline, β-galactosidase enzyme activity is determined by adding […] of the chromogenic substrate (consisting of 3.5 mM o-nitrophenyl-β-D-galactopyranoside and 0.5% nonidet P-40 in phosphate buffered saline), incubating overnight at 30° C. and measuring optical density at 420 nm. The absorbance is a measure of enzyme activity, which depends on cell number and reflects a receptor-mediated cell proliferation. The efficacy or intrinsic activity is calculated as a ratio of the maximal effect of the drug to the maximal effect of a standard full agonist for each receptor subtype. […]

[6] = system: tactile hypersensitivity; experiment: Mouse model of tactile hypersensitivity (sulprostone); format: in vivo, Mice; details: for activity in mouse model of tactile hypersensitivity: general statement, no dose
Procedure: Mice (5-6; 25-35 g) are injected with sulprostone (300 ng/kg intraperitoneal), a prostaglandin receptor agonist that activates EP1 prostaglandin receptors. This chemical stimulus results in sensitivity to light stroking of their flanks with a paintbrush, which is assessed every five minutes from 15 minutes to 50 minutes post-injection. Animals are scored as 0 (no response), 1 (avoidance) or 2 (vigorous avoidance, vocalization) every five minutes and the scores are summed to yield a total hypersensitivity score (maximum=16).
Compounds were tested for their ability to reduce the tactile hypersensitivity score when administered 15 min prior to the sulprostone. […] An oral dose of 300 ug/kg was also active. An ester prodrug, compound 3, was also tested orally.

[7] = system: locomotor activity; experiment: Sedation model, exploratory locomotor activity, rats; format: in vivo; details: for rat locomotor activity: 30 min after dosing (FIG. 3)
Procedure: (§3) The utility of alpha2-adrenergic agonists is limited by a range of side effects, particularly sedation and cardiovascular depression. The sedative activity of the compounds is assessed by measuring their ability to reduce the exploratory activity of mice and rats when placed in a dark chamber 30 min following dosing. The animal's activity is determined automatically by placing it in a digicom analyzer chamber (Omnitech Electronic). These chambers have photocells criss-crossing the box that are broken as the animal moves around. The computer analyzes this movement and records total activity over a 5-min time period. […] This represents greater than a 300-fold margin of safety (FIG. 4).

[8] = system: intraocular pressure (IOP); experiment: IOP model, normotensive rabbits; format: in vivo, New Zealand Rabbits; details: for lowering of IOP: qualitative statement (FIG. 2); for decrease in IOP: topical, rabbit eye (FIG. 2)
Procedure: Male New Zealand Rabbits (6-7; 2-3.5 kg) are used to evaluate drug effects on normotensive IOP measurements. The rabbits are carefully handled so as to minimize excitement. Approximately 25 ul of dilute OphtheticR (0.05%) topical anesthesia is administered to each eye. An initial IOP determination is made in both eyes. Rabbits with 3 mmHg or greater difference in IOP between its right and left eyes are replaced at this time.
Immediately following the T=0 reading in both eyes the rabbits are treated with the compound by a topical route. 35 ul of the test solution is instilled onto the cornea of the randomly selected test eye. Pressure readings are taken at various times post-instillation. Animals are kept in their cages with access to food and water between measurements. Pressure readings utilize a Model 30 Classic™ Pneumatonometer to measure intraocular pressure (IOP) non-invasively through applanation tonometry. compound 1 (0.1%) caused a 20% decrease in IOP and its ester, AGN 204216 (0.03%), caused a 30% decrease in IOP (FIG. 2)

[9] = system: locomotor activity; experiment: Sedation model, exploratory locomotor activity, mice; format: in vivo
Procedure: as §3

O=c1[nH]cc(CC2CCC=C(CO)C2)[nH]1 (centres unmarked)
Alpha adrenergic activity [1]: no Alpha adrenergic activity

NCC1=CCCC(Cc2c[nH]c(=S)[nH]2)C1 (centres unmarked)
Intrinsic activity α2C [2]: 0.95 | Intrinsic activity α2B [3]: 0.86 | Intrinsic activity α2A [4]: 0.81

OCC1=CCC[C@@H](Cc2c[nH]c(=S)[nH]2)C1
Intrinsic activity α2C [2]: 1.1 | Intrinsic activity α2B [3]: 1.0 | Intrinsic activity α1 [5]: 1.1 | Intrinsic activity α2A [4]: 0.9

OCC1=CCCC(Cc2c[nH]c(=S)[nH]2)C1 (centres unmarked) [Compound 1, 4-(3-hydroxymethyl-cyclohex-3-enylmethyl)-1,3-dihydro-imidazole-2-thione]
reduction of tactile hypersensitivity ([6]; dosed intraperitoneally 15 min prior to sulprostone, dose response): reduced the hypersensitivity in a dose-related manner | effect on tactile hypersensitivity ([6]; intraperitoneal, 30 ug/kg): partial effect | effect on tactile hypersensitivity ([6]; intraperitoneal, 100 ug/kg): full effect | total tactile hypersensitivity score ([6]; intraperitoneal, 100 ug/kg, maximum=16, sulprostone 12-14, vehicle 4-6): 5 | effect on tactile hypersensitivity ([6]; oral dose of 300 ug/kg): active | rat locomotor activity ([7]; intraperitoneal doses up to at least 3 mg/kg): did not decrease rat locomotor activity | rat locomotor activity ([7]; oral doses up to at least 10 mg/kg): did not decrease rat locomotor activity | sedation / decrease of locomotor activity ([7]; qualitative statement, no dose): does not sedate rats | margin of safety (non-sedating dose vs effective dose) ([7]; rat locomotor activity vs tactile hypersensitivity doses): ≥ 30 fold | lowering of IOP [8]: lower rabbit IOP | decrease in IOP ([8]; 35 ul of 0.1% solution): 20%

O=C(CC1CCCC1)OCC1=CCCC(Cc2c[nH]c(=S)[nH]2)C1 (centres unmarked) [Compound 3, cyclopentyl-acetic acid 5-(2-thioxo-2,3-dihydro-1H-imidazol-4-ylmethyl)-cyclohex-1-enylmethyl ester]
effect on tactile hypersensitivity ([6]; oral dose of 30 ug/kg): full effect | alleviation of tactile hypersensitivity ([6]; oral dosing, dose response (FIG. 1)): alleviates tactile hypersensitivity; also recorded: very potent at alleviating the tactile sensitivity in a dose-related manner | sedation ([7]; rats, oral dose of 3 mg/kg): did not sedate | lowering of IOP [8]: lower rabbit IOP | decrease in IOP ([8]; 35 ul of 0.03% solution): 30% | sedation ([9]; mice, oral dose of 3 mg/kg): did not sedate | margin of safety / therapeutic window ([9]; oral, mice or rats (FIG. 4)): > 300 fold

Brc1c(N=C2NCCN2)ccc2nccnc12 [brimonidine, reference compound]
activity in mouse model of tactile hypersensitivity [6]: active

Clc1cccc(Cl)c1N=C1NCCN1 [clonidine, reference compound]
activity in mouse model of tactile hypersensitivity [6]: active

OCC1=CCCC(Cc2c[nH]c(=S)[nH]2)C1 (centres unmarked) [drawing 35]
Intrinsic activity α2C [2]: 1.10 | Intrinsic activity α2B [3]: 0.98 | Intrinsic activity α1 [5]: 0.93 | Intrinsic activity α2A [4]: 0.85
